Results as given in patent publication US9649300B2, “Inhibition of WNT, TGF beta and Hippo signaling pathways to treat cancer, organ fibrosis and metabolic disorders” (University of Pittsburgh—of the Commonwealth System of …, priority 2013, dated 2017).

How the values were obtained:
Hippo pathway = assay: TEAD luciferase reporter (8xGT-II) as readout for Hippo signaling; assay type: cell-based; details: for inhibition of Hippo signaling: FIG. 8; for activity of Hippo reporter: FIG. 5
Protocol: (§1) FIGS. 1A-1C. Screening for small molecules inhibitors of the Hippo pathway. FIG. 1A. Hippo associated luciferase reporter (8xGT-II) was used to screen a series of 30 thiadiazole derivatives. Cells transfected with the construct were incubated in the absence (c) or presence of the compounds at 10 μM for 24 hours. Luciferase activity expressed in arbitrary units (AU) was measured in protein extracts. Data represent average for three replicates ±SE. FIG. 1B. Structure of S21 compound. FIG. 1C. Activity of S21 on Hippo versus CMV-Luciferase reporter measured as described above.
(§2) FIG. 2. S21 as a common inhibitor of Wnt, TGF beta and Hippo. 293 cells were transfected with luciferase reporters corresponding to each pathway and then exposed to S21, the Wnt inhibitor Pyrvinium (PYR) or the TGF beta inhibitor SB-431 at the indicated concentrations. After 24 hours, the cells were lysed and luciferase activity measured. Data represent average of three replicates ±SE.
(§3) FIG. 5. Effect of S21 versus Pirfenidone on activity of Wnt, TGF beta and Hippo reporters. 293 cells were transfected with luciferase reporters corresponding to the three pathways and then incubated with the indicated concentration of S21 or Pirfenidone for 24 hours. Luciferase activity was measured in the protein extract. Each point represents average of three determinations ±SE.
(§4) A TEAD luciferase reporter system was used as a readout for Hippo signaling, to screen a series of thiadiazole derivatives synthesized in our laboratory. For this, 293 cells transfected with the reporter construct were incubated in the absence or the presence of individual compounds at 10 μM concentration each for 24 hours. Proteins were then extracted and used as a source of enzyme of luciferase activity.

melanoma cells WM266 [1] = assay: Tumor xenograft mouse model; assay type: in vivo
Protocol: FIGS. 9A-9B. Effect of C19 (mg/Kg) on tumor growth (FIG. 9A) and body weight (FIG. 9B). Data represents 7 replicates ±SE. *p<0.05., **p<0.01.
To obtain information regarding the efficacy of C19 in a tumor xenograft mouse model, nude mice (strain CD1) were injected subcutaneously with melanoma cells WM266. After tumors became palpable (˜5 mm in diameter), the mice were randomized into control and treatment groups (n=7). The control group was injected intraperitoneally with the vehicle (DMSO 3% in 200 μl of DMEM) and the treatment groups were injected with increasing doses of C19 (in mg/Kg) dissolved in 200 μl of vehicle solution. The animals received 3 injections starting on day 15 and separated by three days. Tumor volumes and body weight were measured on a daily basis.

AMPK = assay: Phosphorylation (activation) of AMPK; assay type: cell-based; details: for activation of AMPK: FIG. 8
Protocol: (§5) FIGS. 10A-10F. FIGS. 10A and 10B. Dose and time dependent effects of C19 on phosphorylation of AMPK. In FIG. 10B, C19 was used at 5 μM. FIG. 10C. Effect of AICAR on phosphorylation of AMPK. FIG. 10D. Confirmation in different cell lines. FIGS. 10E and 10F. Effect of C19 on phosphorylation of downstream AMPK targets ACC and UIK1.
(§6) Investigation of the mechanism by which C19 exert its activity led to the discovery that, in addition to its effect on MST/Lats, this compound acts as a potent activator of the metabolic enzyme and tumor suppressor kinase AMPK (FIG. 10).

ACC = assay: Phosphorylation of downstream AMPK target ACC; assay type: cell-based; details: FIG. 10E
Protocol: as §5, §6

Ulk1 = assay: Phosphorylation of downstream AMPK target Ulk1; assay type: cell-based; details: FIG. 10F
Protocol: as §5, §6

[2] = test system: luciferase driven by the CMV promoter; assay: CMV-Luciferase reporter (specificity control); assay type: cell-based
Protocol: as §1, §4

Wnt = Wnt luciferase reporter in 293 cells; assay type: cell-based; details: for activity of Wnt reporter: FIG. 5
Protocol: as §2, §3
(§7) By comparison, none of Wnt or TGF beta inhibitors had affected the Hippo pathway reporter.

TGF beta = TGF beta luciferase reporter in 293 cells; assay type: cell-based; details: for activity of TGF beta reporter: FIG. 5
Protocol: as §2, §3, §7

MST1 = molecular target: T1, MST1 (Homo sapiens, UniProt Q13043); assay: Western blot, phosphorylation of core kinase MST1; assay type: cell-based; details: dose-dependent, FIG. 3A
T1 construct: endogenous in cells
T1 sequence (Q13043 1-487): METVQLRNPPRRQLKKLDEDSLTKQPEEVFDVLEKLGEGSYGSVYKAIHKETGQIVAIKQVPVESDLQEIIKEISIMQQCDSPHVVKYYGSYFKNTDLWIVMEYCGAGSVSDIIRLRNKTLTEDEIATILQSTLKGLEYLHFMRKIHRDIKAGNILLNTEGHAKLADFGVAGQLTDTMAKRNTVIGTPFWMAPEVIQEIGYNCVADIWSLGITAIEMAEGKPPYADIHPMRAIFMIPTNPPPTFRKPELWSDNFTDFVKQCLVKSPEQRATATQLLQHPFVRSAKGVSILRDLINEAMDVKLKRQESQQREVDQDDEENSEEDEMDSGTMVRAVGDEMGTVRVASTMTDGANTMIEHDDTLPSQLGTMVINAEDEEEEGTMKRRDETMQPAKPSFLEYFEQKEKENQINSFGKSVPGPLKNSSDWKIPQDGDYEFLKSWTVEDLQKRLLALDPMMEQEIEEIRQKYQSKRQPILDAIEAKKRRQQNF
Protocol: (§8) FIGS. 3A-3B. Effect of S21 on key elements of the Hippo pathway. Western blot analysis was carried out to determine the effect of S21 on expression and phosphorylation of MST/Lats (FIG. 3A) and nucleocytoplasmic localization of YAP and beta catenin (FIG. 3B).
(§9) To gain insights into the mechanism(s) by which S21 inhibits the Hippo pathway, its effect on activation of the core kinases MST1 and Lats1 was analyzed.

Lats1 = molecular target: T2, Lats1 (Homo sapiens, UniProt O95835); assay: Western blot, phosphorylation of core kinase Lats1; assay type: cell-based; details: dose-dependent, FIG. 3A
T2 construct: endogenous in cells
T2 sequence (O95835 1-1130): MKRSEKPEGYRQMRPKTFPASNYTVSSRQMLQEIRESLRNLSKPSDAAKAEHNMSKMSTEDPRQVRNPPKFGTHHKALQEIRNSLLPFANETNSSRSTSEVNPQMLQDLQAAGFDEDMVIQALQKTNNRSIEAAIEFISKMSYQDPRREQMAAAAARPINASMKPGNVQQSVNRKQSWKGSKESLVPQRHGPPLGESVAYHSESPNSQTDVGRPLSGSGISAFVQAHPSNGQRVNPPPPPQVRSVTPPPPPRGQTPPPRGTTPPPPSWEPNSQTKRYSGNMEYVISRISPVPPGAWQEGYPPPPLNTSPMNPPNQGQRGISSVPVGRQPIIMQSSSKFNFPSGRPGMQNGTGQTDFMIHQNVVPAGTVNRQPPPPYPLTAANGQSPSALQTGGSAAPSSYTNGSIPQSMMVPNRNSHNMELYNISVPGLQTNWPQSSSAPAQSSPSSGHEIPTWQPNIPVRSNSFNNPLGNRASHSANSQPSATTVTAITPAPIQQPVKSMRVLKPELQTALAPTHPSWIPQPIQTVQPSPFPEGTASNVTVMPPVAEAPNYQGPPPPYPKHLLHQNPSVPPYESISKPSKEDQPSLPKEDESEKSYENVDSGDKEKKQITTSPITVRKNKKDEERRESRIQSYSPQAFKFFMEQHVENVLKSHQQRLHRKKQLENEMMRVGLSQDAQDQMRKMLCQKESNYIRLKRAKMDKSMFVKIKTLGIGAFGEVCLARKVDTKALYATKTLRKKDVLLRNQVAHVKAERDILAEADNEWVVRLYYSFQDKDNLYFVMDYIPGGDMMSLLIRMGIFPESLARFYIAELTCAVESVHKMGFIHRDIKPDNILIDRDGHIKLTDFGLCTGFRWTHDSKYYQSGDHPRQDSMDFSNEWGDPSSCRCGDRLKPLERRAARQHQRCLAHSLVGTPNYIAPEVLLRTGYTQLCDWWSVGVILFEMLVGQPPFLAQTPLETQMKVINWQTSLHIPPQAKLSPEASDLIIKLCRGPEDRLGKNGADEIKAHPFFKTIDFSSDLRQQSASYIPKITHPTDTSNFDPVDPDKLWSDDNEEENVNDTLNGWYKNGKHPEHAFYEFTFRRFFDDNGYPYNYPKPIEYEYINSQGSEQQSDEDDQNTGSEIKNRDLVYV
Protocol: as §8, §9

YAP = assay: Western blot, nucleocytoplasmic localization of YAP; assay type: cell-based; details: FIG. 3B
Protocol: as §8, §9

beta catenin = assay: Western blot, nucleocytoplasmic localization of beta catenin; assay type: cell-based; details: FIG. 3B
Protocol: as §8, §9

melanoma cells WM266 [3] = assay: Western blots of EMT genes and downstream target genes; assay type: cell-based; details: WM266, 24 hours
Protocol: (§10) FIGS. 4A-4D. Inhibition of EMT, cell migration, proliferation and resistance to therapy by S21. FIG. 4A. Western blots showing inhibition of various EMT genes in melanoma cells WM266 exposed to the indicated concentrations of S21 for 24 hours. FIG. 4B. Cell monolayer scratch assay depicting inhibition of cell migration by S21. FIG. 4C. Effect of S21 on cell proliferation measured after 5 days of incubation. FIG. 4D. Cell response to doxorubicin was measured in the presence of and absence of S21. Data in panels C and D represent average of three determinations ±SE.
(§11) Future studies will be needed to elucidate the underlying mechanism.

cell migration = assay: Cell monolayer scratch assay; assay type: cell-based; details: FIG. 4B
Protocol: as §10, §11

[4] = test system: three melanoma and one colon cancer cell lines; assay: Cell proliferation after 5 days of incubation; assay type: cell-based
Protocol: as §10, §11

melanoma cell = assay: Cell response to doxorubicin with and without S21; assay type: cell-based; details: FIG. 4D
Protocol: as §10, §11

fibroblasts = assay: Expression of fibrotic markers (QPCR, Western blot); assay type: cell-based; details: RNA and protein level
Text: FIGS. 6A-6B. S21 inhibits expression of pro-fibrotic and pro-EMT genes. FIG. 6A. QPCR analysis depicting expression levels of pro-EMT ad fibrosis genes in the absence and the presence of S21. FIG. 6B. Western blot analysis showing the effect of S21 on expression of fibronectin, collagen and vimentin. Beta catenin was used as a loading control.

[5] = oral, eight-week-old male untrained mice; cited from earlier work
[6] = tested for up to 100 μM, data not shown

OCCCCOc1nsnc1-c1ccc(Cl)c(Cl)c1 [C19, 4-((4-(3,4-dichlorophenyl)-1,2,5-thiadiazol-3-yl)oxy)butan-1-ol]
inhibition of Hippo signaling (Hippo pathway): inhibition
inhibition of tumor growth (melanoma cells WM266 [1]; 20 mg/Kg intraperitoneal, 3 injections from day 15): about 90%
tumor growth (melanoma cells WM266 [1]; intraperitoneal, increasing doses, 3 injections from day 15): suppresses tumor growth in a dose dependent manner
signs of toxicity or death (melanoma cells WM266 [1]; throughout the experiment): No signs of toxicity or death
body weight compared to controls (melanoma cells WM266 [1]; treatment groups, FIG. 9B): did not change significantly
activation of AMPK (AMPK): activation
potency on AMPK relative to AICAR (AMPK; FIG. 10C): at least 10 times
effect on AMPK in different cell lines (AMPK; FIG. 10D): validated
phosphorylation (activation) of AMPK (AMPK; concentration and time dependent, FIGS. 10A and 10B): induced phosphorylation
phosphorylation of ACC (ACC): induced phosphorylation
phosphorylation of Ulk1 (Ulk1): induced phosphorylation

OCCCCOc1nsnc1-c1ccc(Cl)cc1 [S21]
inhibition of TEAD luciferase reporter activity (Hippo signaling) (Hippo pathway; 293 cells, 10 μM, 24 hours): strongest inhibition
activity of Hippo reporter (Hippo pathway; 293 cells, 24 hours): dose dependent inhibition
inhibition of Hippo signaling (Hippo pathway): inhibition
inhibition of luciferase driven by the CMV promoter [2]: did not inhibit
inhibition of Wnt signaling reporter (Wnt; 293 cells, 24 hours, FIG. 2): remarkably inhibited
activity of Wnt reporter (Wnt; 293 cells, 24 hours): dose dependent inhibition
inhibition of TGF beta signaling reporter (TGF beta; 293 cells, 24 hours, FIG. 2): remarkably inhibited
activity of TGF beta reporter (TGF beta; 293 cells, 24 hours): dose dependent inhibition
phosphorylation of MST1 (MST1): induced phosphorylation
phosphorylation of Lats1 (Lats1): induced phosphorylation
nuclear and cytoplasmic levels of YAP (YAP): reduced nuclear localization and enhanced cytoplasmic levels
nuclear and cytoplasmic levels of beta catenin (beta catenin): reduced nuclear localization and enhanced cytoplasmic levels
expression of EMT-associated gene Zeb1 (melanoma cells WM266 [3]): strongly inhibits
level of Cyclin D (melanoma cells WM266 [3]): reduced
level of Hes (melanoma cells WM266 [3]): reduced
level of Myc (melanoma cells WM266 [3]): reduced
cell migration (cell migration): strongly inhibited
response of metastatic WM266 versus non-metastatic WM115 ([4]; melanoma cell lines): responded better
anti-proliferative action ([4]; three melanoma and one colon cancer cell lines): anti-proliferative action
melanoma cell response to doxorubicin in presence of compound (melanoma cell): significantly enhanced
expression of Collagen (fibroblasts): dose dependent decrease
expression of Finbronectin (fibroblasts): dose dependent decrease
activation of AMPK (AMPK): activation

Cc1ccc(=O)n(-c2ccccc2)c1 [Pirfenidone, reference compound]
activity of Hippo reporter (Hippo pathway; 293 cells, 24 hours): without effect
inhibition of Hippo reporter (Hippo pathway; [6]): no inhibition was detected
activity of Wnt reporter (Wnt; 293 cells, 24 hours): without effect
inhibition of Wnt reporter (Wnt; [6]): no inhibition was detected
activity of TGF beta reporter (TGF beta; 293 cells, 24 hours): without effect
inhibition of TGF beta reporter (TGF beta; [6]): no inhibition was detected

NC(=O)c1ncn([C@@H]2O[C@H](CO)[C@@H](O)[C@H]2O)c1N [AICAR, 5-aminoimidazole-4-carboxamide 1-D-ribonucleoside]
increase in endurance without exercise [5]: 44%
